The target of test [1] is T1, EV68-3C protease (enterovirus D68, UniProt A1E4A3). Nature of the test: FRET peptide cleavage assay (DABCYL/EDANS 10-mer, 2C/3A site). The test is classed as biochemical.
In test [2] the target is T1, EV68-3C protease. The test is described as above. The format is biochemical. The settings on record: covalent (irreversible); 60 min preincubation; 25 nM enzyme; 10 μM substrate; 50 mM HEPES pH 7.5, 100 mM NaCl, 3% DMSO; unreliable is not stated.

Read-outs that look alike come from different tables or passages of the source.

T1 sequence (A1E4A3 entry or part of it): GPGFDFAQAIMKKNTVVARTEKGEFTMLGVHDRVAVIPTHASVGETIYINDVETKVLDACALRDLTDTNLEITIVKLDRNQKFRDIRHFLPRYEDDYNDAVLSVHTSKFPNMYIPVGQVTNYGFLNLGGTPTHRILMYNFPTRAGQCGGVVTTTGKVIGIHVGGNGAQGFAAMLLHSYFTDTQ

In test [1], `COc1cccc2[nH]c(C(=O)N[C@@H](CC(C)C)C(=O)N[C@@H](C[C@@H]3CCNC3=O)C(=O)CO)cc12` [PF-00835231] registered an IC50 of 1.8 ± 0.2 µM.

The molecule `Cn1cnc(Cn2c(=O)[nH]/c(=N\c3cc4cn(C)nc4cc3Cl)n(Cc3cc(F)c(F)cc3F)c2=O)n1` [ensitrelvir] displayed an IC50 in test [1] of more than 10 µM.

The molecule `CC(C)(C)[C@H](NC(=O)C(F)(F)F)C(=O)N1C[C@H]2[C@@H]([C@H]1C(=O)N[C@H](C#N)C[C@@H]1CCNC1=O)C2(C)C` [nirmatrelvir] returned a half-maximal inhibitory concentration (IC50) in test [1] of more than 10 µM.

`CCOC(=O)/C=C/[C@H](C[C@@H]1CCNC1=O)NC(=O)[C@@H](CC(=O)[C@@H](NC(=O)c1cc(C)on1)C(C)C)Cc1ccc(F)cc1` [rupintrivir]: in test [2], the concentration for half-maximal inhibition (IC50) was 0.0078 ± 0.0006 µM.

(Values after article PMC11768739 (Viruses, 2025).)
